Source: US9206159B2, “Piperazine-piperidine compounds as hepatitis C virus inhibitors” (Theravance Biopharma R&D IP, LLC, priority 2012, dated 2015)

These molecules were tested on HCV genotype 1a replicon cell line (assay: HCV Genotype 1a Replicon Assay). Conditions: Hepatitis C virus, Huh7.5 cell background, NS3-specific protease activity in lysates, 48 or 72 hours, read-out: Genotype 1a (pEC50 class) (converted).
Assay type: cell-based, hepatitis C virus
Experimental: Assay 2: HCV Genotype 1a Replicon Assay
The HCV genotype 1a replicon cell line was obtained from Apath LLC (APC89; Huh7.5 cell background). This subgenomic replicon contains the N-terminus of the HCV core protein fused to the neomycin-resistance selectable marker. The EMCV IRES lies downstream and drives expression of the non-structural proteins NS3-NS5B. Compound potencies were determined using the NS3-specific protease activity in lysates as a measurement of compound inhibition of replicon levels.
Cells were grown at 37° C. in a 5% CO2 humidified incubator in DMEM (Invitrogen) with 10% FBS (HyClone), 1×NEAA (Invitrogen), 1× Pen-Strep (Invitrogen), and 850 μg/mL G418 (Invitrogen). On day 1 of the assay, cells were plated at 15,000 cells/well in black 96-well tissue culture plates (Costar) in 200 μL media lacking G418. Four hours later, once the cells had adhered, the media was removed and replaced with media (no G418) containing dose-responses of test compounds. Compounds were initially diluted in DMSO and then diluted another 200× in media to bring the final DMSO concentration down to 0.5%. The cells were incubated with test compounds for 48 or 72 hours. At the end of the incubation period, media and compound were removed from the plates.
To determine the NS3-specific protease activity in lysates, the cells were lysed at room temperature in 50 μL/well of 50 mM Hepes pH 7.5, 150 mM NaCl, 15% Glycerol, 0.15% Triton X-100, 10 mM DTT for 20 minutes with shaking. 50 μL of an NS3/4a protease-specific FRET substrate (Anaspec RET SI Cat#22991) was then added to the wells at a final concentration of 15 μM. The plates were incubated at 37° C. for 20 minutes, which corresponds to a timepoint at which the protease activity is still in the linear phase. Protease activity was determined by measuring fluorescence (Excitation: 340 nm; Emission: 509 nm).
To analyze the data, the fluorescence was plotted vs. the compound concentration, and EC50 values were determined from a 4-parameter robust fit model using GraphPad Prism software.

SMILES	EC50 [nM]
COC(=O)N[C@H](C(=O)N1C[C@@H](C)C[C@H]1c1nc(-c2ccc(-c3cc(Cl)c(NC(=O)N4CCN(C5CCN(C(=O)C6CC6(Cl)Cl)CC5)CC4)cc3OC(F)(F)F)cc2)c[nH]1)C(C)C (stereo partly drawn) [Example 2, [(S)-1-((S)-2-{4-[5′-Chloro-4′-({4-[1-(2,2-dichloro-cyclopropanecarbonyl)-piperidin-4-yl]-piperazine-1-carbonyl}-amino)-2′-trifluoromethoxy-biphenyl-4-yl]-1H-imidazol-2-yl}-4-methyl-pyrrolidine-1-carbonyl)-2-methyl-propyl]-carbamic acid methyl ester]	1 to 10

Same assay, conditions: Huh7.5 cell background, NS3-specific protease activity in lysates, 48 or 72 hours

SMILES	Genotype 1a (pEC50 class)
COC(=O)NC(C(=O)N1CCCC1c1nc(-c2ccc(-c3ccc(NC(=O)N4CCN(C5CCN(C(=O)C(C)(C)C)CC5)C(CO)C4)cc3OC(F)(F)F)cc2)c[nH]1)C(C)C (stereo not shown) [Example 1-42]	B (B represents pEC50 between 8 and 9 (EC50 between 1 and 10 nM))
CNC(=O)N1CCC(N2CCN(C(=O)Nc3ccc(-c4ccc(-c5c[nH]c(C6CCCN6C(=O)C(NC(=O)OC)C(C)C)n5)cc4)c(OC(F)(F)F)c3)CC2CO)CC1 (stereo not shown) [Example 1-43]	A (A represents a pEC50 value between 6 and 8 (EC50 between 1 μM and 10 nM))
COC(=O)NC(C(=O)N1CCCC1c1nc(-c2ccc(-c3ccc(NC(=O)N4CCN(C5CCN(C(=O)C6CC6)CC5)C(CO)C4)cc3OC(F)(F)F)cc2)c[nH]1)C(C)C (stereo not shown) [Example 1-44]	A (A represents a pEC50 value between 6 and 8 (EC50 between 1 μM and 10 nM))
COC(=O)NC(C(=O)N1CCCC1c1nc(-c2ccc(-c3ccc(NC(=O)N4CCN(C5CCN(C(=O)C6CC6(C)C)CC5)C(CO)C4)cc3OC(F)(F)F)cc2)c[nH]1)C(C)C (stereo not shown) [Example 1-45]	B (B represents pEC50 between 8 and 9 (EC50 between 1 and 10 nM))
COC(=O)N[C@H](C(=O)N1C[C@@H](C)C[C@H]1c1nc(-c2ccc(-c3ccc(NC(=O)N4CCN(C5CCN(C(=O)C6CC6)CC5)CC4)cc3OC(F)(F)F)cc2)c[nH]1)C(C)C [Example 2-1]	D (D represents pEC50>10 (EC50<0.1 nM))
COC(=O)N[C@H](C(=O)N1C[C@@H](C)C[C@H]1c1nc(-c2ccc(-c3cc(F)c(NC(=O)N4CCN(C5CCN(C(=O)OC(C)(C)C)CC5)CC4)cc3OC(F)(F)F)cc2)c[nH]1)C(C)C [Example 2-2]	D (D represents pEC50>10 (EC50<0.1 nM))
COC(=O)N[C@H](C(=O)N1C[C@@H](C)C[C@H]1c1nc(-c2ccc(-c3cc(F)c(NC(=O)N4CCN(C5CCN(C(=O)C6CC6)CC5)CC4)cc3OC(F)(F)F)cc2)c[nH]1)C(C)C [Example 2-3]	D (D represents pEC50>10 (EC50<0.1 nM))
CNC(=O)N1CCC(N2CCN(C(=O)Nc3cc(OC(F)(F)F)c(-c4ccc(-c5c[nH]c([C@@H]6C[C@H](C)CN6C(=O)[C@@H](NC(=O)OC)C(C)C)n5)cc4)cc3F)CC2)CC1 [Example 2-4]	D (D represents pEC50>10 (EC50<0.1 nM))
CNC(=O)N1CCC(N2CCN(C(=O)Nc3cc(OC(F)(F)F)c(-c4ccc(-c5c[nH]c([C@@H]6C[C@H](C)CN6C(=O)[C@@H](NC(=O)OC)C(C)C)n5)cc4)cc3Cl)CC2)CC1 [Example 2-7]	C (C represents pEC50 between and 9 and about 10, (EC50 between 1 nM and 0.1 nM))
COC(=O)N[C@H](C(=O)N1C[C@@H](C)C[C@H]1c1nc(-c2ccc(-c3cc(Cl)c(NC(=O)N4CCN(C5CCN(C(=O)OC(C)(C)C)CC5)CC4)cc3OC(F)(F)F)cc2)c[nH]1)C(C)C [Example 2-8]	C (C represents pEC50 between and 9 and about 10, (EC50 between 1 nM and 0.1 nM))
COC(=O)N[C@H](C(=O)N1C[C@@H](C)C[C@H]1c1nc(-c2ccc(-c3ccc(NC(=O)N4CCN(C5CCN(C(=O)C6CC6(F)F)CC5)CC4)cc3OC(F)(F)F)cc2)c[nH]1)C(C)C (stereo partly shown) [Example 2-10]	C (C represents pEC50 between and 9 and about 10, (EC50 between 1 nM and 0.1 nM))
COC(=O)N[C@H](C(=O)N1C[C@@H](C)C[C@H]1c1nc(-c2ccc(-c3ccc(NC(=O)N4CCN(C5CCN(C(=O)[C@H]6CC6(C)C)CC5)CC4)cc3OC(F)(F)F)cc2)c[nH]1)C(C)C [Example 2-11]	D (D represents pEC50>10 (EC50<0.1 nM))
CNC(=O)N1CCC(N2CCN(C(=O)Nc3ccc(-c4ccc(-c5c[nH]c([C@@H]6C[C@H](C)CN6C(=O)[C@@H](NC(=O)OC)C(C)C)n5)cc4)c(OC(F)(F)F)c3)CC2)CC1 [Example 2-12]	C (C represents pEC50 between and 9 and about 10, (EC50 between 1 nM and 0.1 nM))
COC(=O)N[C@H](C(=O)N1C[C@@H](C)C[C@H]1c1nc(-c2ccc(-c3cc(F)c(NC(=O)N4CCN(C5CCN(C(=O)C6CC6(F)Cl)CC5)CC4)cc3OC(F)(F)F)cc2)c[nH]1)C(C)C (stereo partly shown) [Example 2-14]	C (C represents pEC50 between and 9 and about 10, (EC50 between 1 nM and 0.1 nM))
COC(=O)N[C@H](C(=O)N1C[C@@H](C)C[C@H]1c1nc(-c2ccc(-c3cc(F)c(NC(=O)N4CCN(C5CCN(C(=O)C6CC6(Cl)Cl)CC5)CC4)cc3OC(F)(F)F)cc2)c[nH]1)C(C)C (stereo partly shown) [Example 2-15]	C (C represents pEC50 between and 9 and about 10, (EC50 between 1 nM and 0.1 nM))
COC(=O)N[C@H](C(=O)N1C[C@@H](C)C[C@H]1c1nc(-c2ccc(-c3ccc(NC(=O)N4CCN(C5CCN(C(=O)OC(C)(C)C)CC5)CC4)cc3OC(F)(F)F)cc2)c(Cl)[nH]1)C(C)C [Example 2-18]	C (C represents pEC50 between and 9 and about 10, (EC50 between 1 nM and 0.1 nM))
COC(=O)N[C@H](C(=O)N1C[C@@H](C)C[C@H]1c1nc(-c2ccc(-c3cc(Cl)c(NC(=O)N4CCN(C5CCN(C(=O)C6CC(F)(F)C6)CC5)CC4)cc3OC(F)(F)F)cc2)c[nH]1)C(C)C [Example 2-22]	B (B represents pEC50 between 8 and 9 (EC50 between 1 and 10 nM))
[2H]C([2H])([2H])C1(C([2H])([2H])[2H])CC1C(=O)N1CCC(N2CCN(C(=O)Nc3cc(OC(F)(F)F)c(-c4ccc(-c5c[nH]c([C@@H]6C[C@H](C)CN6C(=O)[C@@H](NC(=O)OC)C(C)C)n5)cc4)cc3Cl)CC2)CC1 (stereo partly shown) [Example 2-23]	C (C represents pEC50 between and 9 and about 10, (EC50 between 1 nM and 0.1 nM))
COC(=O)N[C@H](C(=O)N1C[C@@H](C)C[C@H]1c1nc(-c2ccc(-c3cc(Cl)c(NC(=O)N4CCN(C5CCN(C(=O)C6CC67CC7)CC5)CC4)cc3OC(F)(F)F)cc2)c[nH]1)C(C)C (stereo partly shown) [Example 2-24]	B (B represents pEC50 between 8 and 9 (EC50 between 1 and 10 nM))
COC(=O)N[C@H](C(=O)N1C[C@@H](C)C[C@H]1c1nc(-c2ccc(-c3cc(Cl)c(NC(=O)N4CCN(C5CCN(C(=O)C6CC(C)(C)C6)CC5)CC4)cc3OC(F)(F)F)cc2)c[nH]1)C(C)C [Example 2-25]	B (B represents pEC50 between 8 and 9 (EC50 between 1 and 10 nM))
COC(=O)N[C@H](C(=O)N1C[C@@H](C)C[C@H]1c1nc(-c2ccc(-c3ccc(NC(=O)N4CCN(C5CCN(C(=O)C6CC6)CC5)CC4)cc3OC(F)(F)F)cc2)c(Cl)[nH]1)C(C)C [Example 2-26]	D (D represents pEC50>10 (EC50<0.1 nM))
[2H]C([2H])([2H])C1(C([2H])([2H])[2H])CC1C(=O)N1CCC(N2CCN(C(=O)Nc3ccc(-c4ccc(-c5nc([C@@H]6C[C@H](C)CN6C(=O)[C@@H](NC(=O)OC)C(C)C)[nH]c5Cl)cc4)c(OC(F)(F)F)c3)CC2)CC1 (stereo partly shown) [Example 2-27]	D (D represents pEC50>10 (EC50<0.1 nM))
COC(=O)N[C@H](C(=O)N1C[C@@H](C)C[C@H]1c1nc(-c2ccc(-c3ccc(NC(=O)N4CCN(C5CCN(C(=O)OC(C)(C)C)CC5)CC4)cc3OC(F)(F)F)cc2)c(F)[nH]1)C(C)C [Example 2-28]	D (D represents pEC50>10 (EC50<0.1 nM))
COC(=O)N[C@H](C(=O)N1C[C@@H](C)C[C@H]1c1nc(-c2ccc(-c3ccc(NC(=O)N4CCN(C5CCN(C(=O)C(C)(C)CO)CC5)CC4)cc3OC(F)(F)F)cc2)c[nH]1)C(C)C [Example 2-29]	C (C represents pEC50 between and 9 and about 10, (EC50 between 1 nM and 0.1 nM))
COC(=O)N[C@H](C(=O)N1CCC[C@H]1c1nc(-c2ccc(-c3ccc(NC(=O)N4CCC(N5CCN(C(=O)OC(C)(C)C)CC5)CC4)cc3)cc2)c[nH]1)C(C)C [Example 3-1]	A (A represents a pEC50 value between 6 and 8 (EC50 between 1 μM and 10 nM))
COC(=O)N[C@H](C(=O)N1CCC[C@H]1c1nc(-c2ccc(-c3ccc(NC(=O)N4CCC(N5CCN(C(=O)C6CC6)CC5)CC4)cc3)cc2)c[nH]1)C(C)C [Example 3-3]	A (A represents a pEC50 value between 6 and 8 (EC50 between 1 μM and 10 nM))
CNC(=O)N1CCN(C2CCN(C(=O)Nc3ccc(-c4ccc(-c5c[nH]c([C@@H]6CCCN6C(=O)[C@@H](NC(=O)OC)C(C)C)n5)cc4)cc3)CC2)CC1 [Example 3-5]	A (A represents a pEC50 value between 6 and 8 (EC50 between 1 μM and 10 nM))
